Source: BindingDB's records for doi:10.1038/350610a0 (University of Toronto, 1991)
Where “and” joins values, the source holds several entries; their conditions need not be identical. Equal values may be shown once.

Key:
D(2) dopamine receptor = D(2) dopamine receptor (Homo sapiens, UniProt P14416)
D(4) dopamine receptor = target: T1, D(4) dopamine receptor (Rattus norvegicus, UniProt P30729)
T1 sequence (P30729 whole entry): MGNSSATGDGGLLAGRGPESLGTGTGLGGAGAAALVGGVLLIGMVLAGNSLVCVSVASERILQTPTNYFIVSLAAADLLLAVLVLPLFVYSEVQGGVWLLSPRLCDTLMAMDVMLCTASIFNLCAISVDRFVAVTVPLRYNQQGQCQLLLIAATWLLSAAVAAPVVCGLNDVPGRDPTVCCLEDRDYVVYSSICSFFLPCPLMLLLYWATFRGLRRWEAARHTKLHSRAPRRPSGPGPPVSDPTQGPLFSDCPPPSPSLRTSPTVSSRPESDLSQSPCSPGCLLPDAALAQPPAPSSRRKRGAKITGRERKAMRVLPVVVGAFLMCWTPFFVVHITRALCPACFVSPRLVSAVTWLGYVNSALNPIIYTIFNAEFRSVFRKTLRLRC

Dopamine receptor D4 = target: T2, Dopamine receptor D4 (Canis lupus familiaris, UniProt Q589Y6)
T2 sequence (Q589Y6 whole entry): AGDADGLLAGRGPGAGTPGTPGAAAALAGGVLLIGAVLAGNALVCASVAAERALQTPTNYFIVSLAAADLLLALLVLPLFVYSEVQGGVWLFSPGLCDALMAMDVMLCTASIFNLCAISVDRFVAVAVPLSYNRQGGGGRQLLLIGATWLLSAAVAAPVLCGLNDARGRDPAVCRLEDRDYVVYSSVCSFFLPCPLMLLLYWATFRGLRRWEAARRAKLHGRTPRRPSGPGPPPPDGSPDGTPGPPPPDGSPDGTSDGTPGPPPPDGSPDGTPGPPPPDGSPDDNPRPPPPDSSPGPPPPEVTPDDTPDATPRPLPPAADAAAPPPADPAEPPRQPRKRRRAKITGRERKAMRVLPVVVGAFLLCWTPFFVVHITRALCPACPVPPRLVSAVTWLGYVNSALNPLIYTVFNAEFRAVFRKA

D(2) dopamine receptor, sequence (P14416 whole entry): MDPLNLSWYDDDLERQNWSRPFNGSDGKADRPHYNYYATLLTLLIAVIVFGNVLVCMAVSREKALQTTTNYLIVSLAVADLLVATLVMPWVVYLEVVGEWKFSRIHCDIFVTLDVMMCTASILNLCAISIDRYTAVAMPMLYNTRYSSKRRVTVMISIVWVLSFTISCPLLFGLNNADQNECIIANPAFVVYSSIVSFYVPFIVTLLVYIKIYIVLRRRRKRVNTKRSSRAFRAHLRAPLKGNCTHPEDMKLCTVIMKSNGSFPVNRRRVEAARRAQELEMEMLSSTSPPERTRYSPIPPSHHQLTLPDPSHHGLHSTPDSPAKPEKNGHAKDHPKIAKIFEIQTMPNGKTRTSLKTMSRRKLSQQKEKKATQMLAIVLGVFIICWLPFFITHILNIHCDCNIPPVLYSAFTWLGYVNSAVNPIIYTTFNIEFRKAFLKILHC

Compound	Ki (D(2) dopamine receptor) [µM]	Ki (D(4) dopamine receptor) [µM]	Ki (Dopamine receptor D4)
CC(C)C[C@H]1C(=O)N2CCC[C@H]2[C@]2(O)O[C@](NC(=O)[C@@H]3C=C4c5cccc6[nH]c(Br)c(c56)C[C@H]4N(C)C3)(C(C)C)C(=O)N12 [Bromocriptine+ (GTP+)]	0.0126	0.34	
CCCN1CCC[C@@H]2Cc3n[nH]cc3C[C@H]21 [NSC_54562]			0.0048 µM and 0.046 µM
CN1CCN(C2=c3ccccc3=Nc3ccc(Cl)cc3N2)CC1 [6-chloro-10-(4-methylpiperazin-1-yl)-2,9-diazatricyclo[9.4.0.0^{3,8}]pentadeca-1,3(8),4,6,10,12,14-heptaene]			0.009 µM
CN1CCc2cccc3c2[C@H]1Cc1ccc(O)c(O)c1-3 [APOKYN]			0.002 µM and 0.0041 µM
O=c1[nH]c2ccccc2n1C1CCN(CCCC(c2ccc(F)cc2)c2ccc(F)cc2)CC1 [1-(1-(4,4-bis(4-fluorophenyl)butyl)piperidin-4-yl)-1H-benzo[d]imidazol-2(3H)-one]		0.043	
CN1CCN(CCCN2c3ccccc3Sc3ccc(C(F)(F)F)cc32)CC1			0.0012 µM and 0.003 µM
CCN1CCC[C@H]1CNC(=O)c1c(O)c(Cl)cc(Cl)c1OC [3,5-Dichloro-N-(1-ethyl-pyrrolidin-2-ylmethyl)-2-hydroxy-6-methoxy-benzamide (raclopride)]		0.237	
NCC(O)c1ccc(O)c(O)c1 (stereo not drawn) [Noradrenaline,(+)]			6 µM and 1.76 µM
NCCc1c[nH]c2ccc(O)cc12 [[3H]-5-HT]			4.18 µM
O=C(c1ccc(F)cc1)C1CCN(CCn2c(=O)[nH]c3ccccc3c2=O)CC1 [3-(2-{4-[(4-fluorophenyl)carbonyl]piperidin-1-yl}ethyl)-1,2,3,4-tetrahydroquinazoline-2,4-dione]			0.192 µM and 0.148 µM
CN1CCN(CCCN2c3ccccc3Sc3ccc(S(=O)(=O)N(C)C)cc32)CC1 [NSC_92178]		0.053	
NCCc1ccc(O)c(O)c1			0.0075 µM and 0.028 µM
Nc1nc2c(ncn2[C@@H]2O[C@H](COP(=O)(O)OP(=O)(O)OP(=O)(O)O)[C@@H](O)[C@H]2O)c(=O)[nH]1 [Dopamine+ (GTP+)]		0.45	
